Laboratory results: patent US20200261479A1, “PROCESSES FOR THE PREPARATION OF AMORPHOUS TENOFOVIR ALAFENAMIDE HEMIFUMARATE AND A PREMIX THEREOF” (MYLAN LABORATORIES LIMITED, priority 2015, published 2020)

Experiments:
[1] = Storage stability of amorphous tenofovir alafenamide hemifumarate and premixes, HPLC purity
Procedure: As used herein, a compound or pharmaceutical composition is considered “stable” where the HPLC purity of the compound or premix changes by less than about 1% when stored at 5±3° C. and/or at 25° C./60% relative humidity (RH). In certain embodiments, the “stable” compound or premix is stored at 5±3° C. In other embodiments, the “stable” compound or premix is stored at 25° C./60% relative humidity (RH).
Further, the stability of certain embodiments of the premix of amorphous tenofovir alafenamide hemifumarate can be measured by PXRD and HPLC. Thus, HPLC analyses were also performed. HPLC separations were performed on a Waters Alliance 2695 HPLC system with UV detector. Data was collected and analyzed with Empower chromatography software or equivalent. The separation was performed on an X-Bridge Phenyl, 250×4.6 mm, 5 μm column with a mobile phase flow rate of 0.7 mL/min and injection volume of 10 μL. Separations were performed by gradient elution with mobile 1.75 mM tetrabutylammonium bisulfate (pH 2.0) in 5% THF (mobile phase A) and 70:30 acetonitrile:methanol (mobile phase B) as specified in the table below.
The column oven temp was 20° C. and UV detector was set to 260 nm. The purity of the premix was also measured by HPLC using similar conditions.

[2] = Storage stability of amorphous tenofovir alafenamide hemifumarate and premixes, PXRD pattern; assay type: physicochemical
Procedure: The amorphous form of tenofovir alafenamide hemifumarate of the present disclosure may be characterized by a PXRD pattern. Thus, the PXRD patterns of the amorphous form of tenofovir alafenamide hemifumarate were obtained on BRUKER D-8 Discover powder diffractometer equipped with goniometer of θ/2θ configuration and Lynx Eye detector. The Cu-anode X-ray tube was operated at 40 kV and 30 mA. The experiments were conducted over the 2θ range of 2.0°-50.0°, 0.030° step size and 0.4 seconds step time.
Thus, the PXRD patterns of several embodiments of the present disclosure were obtained on BRUKER D-8 Discover powder diffractometer equipped with goniometer of θ/2θ configuration and Lynx Eye detector. The Cu-anode X-ray tube was operated at 40 kV and 30 mA. The experiments were conducted over the 2θ range of 2.0°-50.0°, 0.030° step size and 0.4 seconds step time.

CC(C)OC(=O)[C@H](C)N[P@](=O)(CO[C@H](C)Cn1cnc2c(N)ncnc21)Oc1ccccc1 [tenofovir alafenamide hemifumarate]
HPLC purity (%) ([1]; at 5 ± 3° C., 3 months): 99.45% | HPLC purity (%) ([1]; at 5 ± 3° C., 6 months): 99.54% | HPLC purity (%) ([1]; at 5 ± 3° C., Initial): 99.53% | HPLC purity (%) ([1]; at 25° C./60% RH, 3 months): 99.36% | HPLC purity (%) ([1]; at 25° C./60% RH, 6 months): 99.48% | HPLC purity (%) ([1]; at 25° C./60% RH, Initial): 99.53% | degradation or change in PXRD pattern on storage ([1]; stored at 5±3° C. and at 25° C./60% RH, 3 and 6 months, HPLC and PXRD): no significant degradation or change in PXRD pattern | PXRD ([2]; at 5 ± 3° C., 3 months): Stable | PXRD ([2]; at 5 ± 3° C., 6 months): Stable | PXRD ([2]; at 5 ± 3° C., Initial): Amorphous | PXRD ([2]; at 25° C./60% RH, 3 months): Stable | PXRD ([2]; at 25° C./60% RH, 6 months): Stable | PXRD ([2]; at 25° C./60% RH, Initial): Amorphous
